According to ChEMBL document CHEMBL4613212, “Insights of synthetic analogues of anti-leprosy agents” (Bioorg Med Chem, 2019):
≈ marks a conversion by molar mass, not a printed value.

Columns and labels:
Mycobacterium leprae [1] = assay: Anti-leprotic activity against Mycobacterium leprae infected in 538 CBA mouse assessed as number of Mycobacterium leprae in paw pads at 2 mg/kg administrated via gastric tube 5 times a week and measured 7 months post infection; type: functional
Mycobacterium leprae [2] = assay: Anti-leprotic activity against Mycobacterium leprae infected in 538 CBA mouse assessed as number of Mycobacterium leprae in paw pads at 6 mg/kg administrated via gastric tube 5 times a week and measured 7 months post infection; type: functional
[3] = Inhibition of Mycobacterium smegmatis ATCC 607 dihydrofolic reductase; parameters: species or system Mycolicibacterium smegmatis
[4] = system: Mycolicibacterium smegmatis; assay: Inhibition of Mycobacterium smegmatis ATCC 607 dihydrofolic reductase assessed as ratio of Km to Ki
[5] = system: Mycolicibacterium smegmatis; assay: Antimicrobial activity against Mycobacterium smegmatis ATCC 607; type: functional; settings: Mycolicibacterium smegmatis, ATCC 607; read-out: MIC
[6] = system: Mycolicibacterium smegmatis; assay: Antimicrobial activity against Mycobacterium smegmatis incubated for 24 hrs by broth microdilution assay; type: functional
Mycolicibacterium aurum = assay: Antimicrobial activity against Mycobacterium aurum incubated for 24 hrs by broth microdilution assay; type: functional
Mycolicibacterium vaccae = assay: Antimicrobial activity against Mycobacterium vaccae incubated for 24 hrs by broth microdilution assay; type: functional
[7] = system: Mycolicibacterium fortuitum; assay: Antimicrobial activity against Mycobacterium fortuitum incubated for 24 hrs by broth microdilution assay; type: functional
[8] = system: Mycolicibacterium smegmatis; assay: Antimycobacterial activity against Mycobacterium smegmatis mc2 155 incubated for 2 days by spectrophotometric based assay; type: functional; settings: MC2 155, 48 h
Monocyte = assay: Antiinflammatory activity in human monocytes assessed as inhibition of LPS-induced TNFaplha production at 50 uM preincubated for 15 mins followed by LPS addition and measured after 4 hrs by ELISA relative to control; type: functional
[9] = Cytotoxicity against LPS-induced human monocytes assessed as cell viability at 50 uM by tryphan blue staining based assay relative to control; parameters: species or system Monocyte; settings: read-out: Activity
Enterococcus faecalis [10] = assay: Antimicrobial activity against Enterococcus faecalis ATCC 29212 by broth microdilution assay; type: functional
Staphylococcus aureus = assay: Antimicrobial activity against Staphylococcus aureus ATCC 25923 by broth microdilution assay; type: functional
Enterococcus faecalis [11] = assay: Antimicrobial activity against Enterococcus faecalis ATCC 51922 by broth microdilution assay; type: functional
Listeria monocytogenes = assay: Antimicrobial activity against Listeria monocytogenes ATCC 1911 by broth microdilution assay; type: functional
Klebsiella pneumoniae = assay: Antimicrobial activity against Klebsiella pneumoniae 700603 by broth microdilution assay; type: functional
Pseudomonas aeruginosa = assay: Antimicrobial activity against Pseudomonas aeruginosa ATCC 27853 by broth microdilution assay; type: functional
Escherichia coli [12] = assay: Antimicrobial activity against Escherichia coli ATCC 35218 by broth microdilution assay; type: functional
Escherichia coli [13] = assay: Antimicrobial activity against Escherichia coli ATCC 25922 by broth microdilution assay; type: functional
[14] = system: Mycobacterium tuberculosis; assay: Antitubercular activity against Mycobacterium tuberculosis H37Rv ATCC 27294 incubated for 7 days by microplate alamar blue assay; type: functional; settings: H37Rv ATCC 27294, 168 h
Plasmodium berghei = assay: Antimalarial activity against Plasmodium berghei infected in albino mouse assessed survival against infection at 400 mg/kg, sc administered as single dose; type: functional
Mycobacterium leprae [15] = assay: Anti-leprotic activity against Mycobacterium leprae infected in albino mouse assessed survival against infection at 400 mg/kg, sc administered 58 days post-infection and subsequent compound dosing at 200 mg/kg at 0.5, 1 or 2 months interval; type: functional
[16] = Drug excretion in rat urine at 400 mg/kg, sc administered as single dose measured after 30 days; type: ADME, organism-based; settings: read-out: Drug excretion
[17] = Half life in rat at 400 mg/kg, sc administered as single dose; type: ADME, organism-based; settings: in vivo

COc1cc(Oc2cnc(N)nc2N)cc(OC)c1Br
Activity (Mycobacterium leprae [1]): 1.27 ×10⁷ No_unit | Activity (Mycobacterium leprae [2]): 0.56 ×10⁷ No_unit

COc1cc(Cc2cnc3nc(N)nc(N)c3n2)cc(OC)c1OC
Ki [3]: 5 nM | Ratio [4]: 230 | MIC [5]: 347 µM (≈ 119 µg/mL)

COc1cc(CCc2cnc3nc(N)nc(N)c3n2)cc(OC)c1OC
Ki [3]: 18 nM | Ratio [4]: 2050 | MIC [5]: > 281 µM

N#Cc1cc([N+](=O)[O-])cnc1SC(=S)N1CCCCCC1
MIC [6]: 1.56 µg/mL (≈ 4.84 µM) | MIC (Mycolicibacterium aurum): 1.56 µg/mL (≈ 4.84 µM) | MIC (Mycolicibacterium vaccae): 0.4 µg/mL (≈ 1.24 µM) | MIC [7]: 0.8 µg/mL (≈ 2.48 µM) | Activity (Mycobacterium leprae [1]): 6.64 ×10⁷ No_unit | Activity (Mycobacterium leprae [2]): 0.28 ×10⁷ No_unit

O=C1c2ccccc2C(=O)N1c1ccc(S(=O)(=O)Nc2ccccn2)cn1
MIC99 [8]: 6100 µM (≈ 2320 µg/mL)

O=C1c2c(F)c(F)c(F)c(F)c2C(=O)N1c1cn(-c2ccccc2)c(=O)[nH]c1=O
inhibition at 50 µM (Monocyte): < 10% | viability at 50 µM [9]: 95%

CN(Cc1cnc2nc(N)nc(N)c2n1)c1ccc(C(=O)N[C@@H](CCC(=O)O)C(=O)O)cc1 [METHOTREXATE]
Ki [3]: 0.35 nM | Ratio [4]: 11700 | MIC [5]: 2200 µM (≈ 1000 µg/mL)

O=C1c2ccccc2C(=O)N1c1ccc(S(=O)(=O)Nc2ccncn2)cc1
MIC99 [8]: 2300 µM (≈ 875 µg/mL)

CC(C)CCc1cnc2nc(N)nc(N)c2n1
Ki [3]: 1 nM | Ratio [4]: 4100 | MIC [5]: 775 µM (≈ 180 µg/mL)

CCCCCCCCC(COC1CCCC1)C(=O)O (stereo not drawn)
MIC99 [8]: 3600 µM (≈ 973 µg/mL)

Nc1ccc(F)c(F)c1
inhibition at 50 µM (Monocyte): 19% | viability at 50 µM [9]: 99%

FC(F)(F)c1ccc(NC(=S)N/N=C/c2ccc(Br)cc2)cc1
MIC (Enterococcus faecalis [10]): 400 µg/mL (≈ 994 µM) | MIC (Staphylococcus aureus): 400 µg/mL (≈ 994 µM) | MIC (Enterococcus faecalis [11]): 400 µg/mL (≈ 994 µM) | MIC (Listeria monocytogenes): 400 µg/mL (≈ 994 µM) | MIC (Klebsiella pneumoniae): 400 µg/mL (≈ 994 µM) | MIC (Pseudomonas aeruginosa): 400 µg/mL (≈ 994 µM) | MIC (Escherichia coli [12]): 800 µg/mL (≈ 1990 µM) | MIC (Escherichia coli [13]): 400 µg/mL (≈ 994 µM) | MIC [14]: 400 µg/mL (≈ 994 µM)

CN(C)c1ccc(/C=N/NC(=S)Nc2ccc(C(F)(F)F)cc2)cc1
MIC (Enterococcus faecalis [10]): 400 µg/mL (≈ 1090 µM) | MIC (Staphylococcus aureus): 400 µg/mL (≈ 1090 µM) | MIC (Enterococcus faecalis [11]): 400 µg/mL (≈ 1090 µM) | MIC (Listeria monocytogenes): 400 µg/mL (≈ 1090 µM) | MIC (Klebsiella pneumoniae): 400 µg/mL (≈ 1090 µM) | MIC (Pseudomonas aeruginosa): 400 µg/mL (≈ 1090 µM) | MIC (Escherichia coli [12]): 400 µg/mL (≈ 1090 µM) | MIC (Escherichia coli [13]): 400 µg/mL (≈ 1090 µM) | MIC [14]: 200 µg/mL (≈ 546 µM)

COc1ccc(/C=N/NC(=S)Nc2ccc(C(F)(F)F)cc2)cc1
MIC (Enterococcus faecalis [10]): 400 µg/mL (≈ 1130 µM) | MIC (Staphylococcus aureus): 400 µg/mL (≈ 1130 µM) | MIC (Enterococcus faecalis [11]): 400 µg/mL (≈ 1130 µM) | MIC (Listeria monocytogenes): 800 µg/mL (≈ 2260 µM) | MIC (Klebsiella pneumoniae): 400 µg/mL (≈ 1130 µM) | MIC (Pseudomonas aeruginosa): 400 µg/mL (≈ 1130 µM) | MIC (Escherichia coli [12]): 800 µg/mL (≈ 2260 µM) | MIC (Escherichia coli [13]): 400 µg/mL (≈ 1130 µM) | MIC [14]: 200 µg/mL (≈ 566 µM)

O=C1c2ccccc2C(=O)N1c1cnc(S(=O)(=O)Nc2ccccn2)cn1
MIC99 [8]: 3000 µM (≈ 1140 µg/mL)

CCc1nc(N)nc(N)c1-c1ccc(Cl)cc1 [PYRIMETHAMINE]
Ki [3]: 75 nM | Ratio [4]: 0.8 | MIC [5]: 101 µM (≈ 25.1 µg/mL)

Cc1ccc(/C=N/NC(=S)Nc2ccc(C(F)(F)F)cc2)cc1
MIC (Enterococcus faecalis [10]): 400 µg/mL (≈ 1190 µM) | MIC (Staphylococcus aureus): 400 µg/mL (≈ 1190 µM) | MIC (Enterococcus faecalis [11]): 400 µg/mL (≈ 1190 µM) | MIC (Listeria monocytogenes): 800 µg/mL (≈ 2370 µM) | MIC (Klebsiella pneumoniae): 400 µg/mL (≈ 1190 µM) | MIC (Pseudomonas aeruginosa): 400 µg/mL (≈ 1190 µM) | MIC (Escherichia coli [12]): 800 µg/mL (≈ 2370 µM) | MIC (Escherichia coli [13]): 400 µg/mL (≈ 1190 µM) | MIC [14]: 200 µg/mL (≈ 593 µM)

Cc1cnc2nc(N)nc(N)c2n1
Ki [3]: 5100 nM | Ratio [4]: 0.8 | MIC [5]: > 568 µM

Nc1nc(N)c2nc(CNc3ccc(C(=O)N[C@@H](CCC(=O)O)C(=O)O)cc3)cnc2n1 [AMINOPTERIN]
Ki [3]: 0.18 nM | Ratio [4]: 23100 | MIC [5]: 742 µM (≈ 327 µg/mL)

CCCCCc1cnc2nc(N)nc(N)c2n1
Ki [3]: 1.2 nM | Ratio [4]: 3420 | MIC [5]: 862 µM (≈ 200 µg/mL)

O=C1c2ccccc2C(=O)N1c1ccc(S(=O)(=O)Nc2cnccn2)cc1
MIC99 [8]: 6800 µM (≈ 2590 µg/mL)

O=C1c2c(F)c(F)c(F)c(F)c2C(=O)N1c1cnc(O)nc1O
inhibition at 50 µM (Monocyte): < 10% | viability at 50 µM [9]: 95%

CCC1(N2C(=O)c3ccccc3C2=O)C(=O)NC(=O)N(C2CCCCC2)C1=O (stereo not drawn)
inhibition at 50 µM (Monocyte): < 10% | viability at 50 µM [9]: 87%

CCC1(N2C(=O)c3c(F)c(F)c(F)c(F)c3C2=O)C(=O)NC(=O)N(c2ccccc2)C1=O (stereo not drawn)
inhibition at 50 µM (Monocyte): 16% | viability at 50 µM [9]: 68%

FC(F)(F)c1ccc(NC(=S)N/N=C/c2ccc(Cl)cc2)cc1
MIC (Enterococcus faecalis [10]): 400 µg/mL (≈ 1120 µM) | MIC (Staphylococcus aureus): 400 µg/mL (≈ 1120 µM) | MIC (Enterococcus faecalis [11]): 400 µg/mL (≈ 1120 µM) | MIC (Listeria monocytogenes): 800 µg/mL (≈ 2240 µM) | MIC (Klebsiella pneumoniae): 400 µg/mL (≈ 1120 µM) | MIC (Pseudomonas aeruginosa): 400 µg/mL (≈ 1120 µM) | MIC (Escherichia coli [12]): 400 µg/mL (≈ 1120 µM) | MIC (Escherichia coli [13]): 400 µg/mL (≈ 1120 µM) | MIC [14]: 400 µg/mL (≈ 1120 µM)

COc1cc(Sc2cnc(N)nc2N)cc(OC)c1Br
Activity (Mycobacterium leprae [1]): 0.66 ×10⁷ No_unit | Activity (Mycobacterium leprae [2]): 0.02 ×10⁷ No_unit

O=C1c2c(F)c(F)c(F)c(F)c2C(=O)N1c1ccc(F)c(F)c1
inhibition at 50 µM (Monocyte): < 10% | viability at 50 µM [9]: 74%

CC(C)Cc1cnc2nc(N)nc(N)c2n1
Ki [3]: 0.9 nM | Ratio [4]: 4560 | MIC [5]: 688 µM (≈ 150 µg/mL)

COc1cc(Cc2cnc(N)nc2N)cc(OC)c1OC [TRIMETHOPRIM]
Ki [3]: 70 nM | Ratio [4]: 54.6 | MIC [5]: 34 µM (≈ 9.87 µg/mL)

CC(=O)N(C)c1ccc(S(=O)(=O)c2ccc(N(C)C(C)=O)cc2)cc1
Survival (Plasmodium berghei): 9 weeks | Survival (Mycobacterium leprae [15]): >8 weeks | dose excreted at 720 h [16]: 85% | half-life [17]: 10 days

NC(=O)c1cc([N+](=O)[O-])cc([N+](=O)[O-])c1SC(=S)N1CCCC1
MIC [6]: 50 µg/mL (≈ 140 µM) | MIC (Mycolicibacterium aurum): 6.25 µg/mL (≈ 17.5 µM) | MIC (Mycolicibacterium vaccae): 0.4 µg/mL (≈ 1.12 µM) | MIC [7]: 6.25 µg/mL (≈ 17.5 µM)

CC(=O)Nc1ccc(S(=O)(=O)c2ccc(N(C)C(C)=O)cc2)cc1
Survival (Plasmodium berghei): 6 weeks | Survival (Mycobacterium leprae [15]): >8 weeks | dose excreted at 720 h [16]: 44% | half-life [17]: 27 days

N#Cc1cc([N+](=O)[O-])cnc1SC(=S)N1CCCCC1
MIC [6]: 3.12 µg/mL (≈ 10.1 µM) | MIC (Mycolicibacterium aurum): 1.56 µg/mL (≈ 5.06 µM) | MIC (Mycolicibacterium vaccae): 1.56 µg/mL (≈ 5.06 µM) | MIC [7]: 1.56 µg/mL (≈ 5.06 µM)

CCCCc1cnc2nc(N)nc(N)c2n1
Ki [3]: 1 nM | Ratio [4]: 4100 | MIC [5]: 917 µM (≈ 200 µg/mL)

Nc1nc(N)c2nc(Cc3ccc(Cl)c(Cl)c3)cnc2n1
Ki [3]: 2 nM | Ratio [4]: 58.5 | MIC [5]: > 311 µM

CCCCCCCCC(CCC1CCCO1)C(=O)O (stereo not drawn)
MIC99 [8]: 9600 µM (≈ 2600 µg/mL)

Nc1nc(N)c2nc(Cc3ccccc3)cnc2n1
Ki [3]: 0.9 nM | Ratio [4]: 4560 | MIC [5]: > 794 µM
